Results reported in publication PMC9527238, “Glutamate and GABAA receptor crosstalk mediates homeostatic regulation of neuronal excitation in the mammalian brain” (Signal Transduction and Targeted Therapy, 2022).

Key:
α1β2 GABAARs = target: T1, α1β2 GABAARs (Rattus norvegicus, UniProt P62813+P63138); assay: [3H]glutamate binding assay, plasma membranes of HEK293 cells overexpressing α1 and β2; conditions: 40 nM [3H]glutamate + 0.4 mM non-radiolabeled competitor
T1 construct: expressed in transfected cells; host or cells: HEK293
Description: For membrane preparation, transfected or non-transfected HEK293 cells were washed twice with cold PBS and harvested by scraping into 5 ml cold PBS. Cells were then centrifuged at 1200 × g for 12 min at 4 °C and medium was removed. The washing procedure was repeated twice. Then the cell pellet was re-suspended into 1 ml of 50 mM Tris-HCl buffer (pH 7.4, with protease inhibitor) and homogenized using syringes with 18-G, 21-G and 23-G needles.
To separate the membrane, the homogenate were centrifuged for 20 min at 20,000 × g at 4 °C. Then the pellet was re-suspended into 1 ml of 50 mM Tris-HCl buffer, pH 7.4 and centrifuged again. After repeating this procedure for one more time, the pellet was re-suspended into 1 ml of 50 mM Tris-HCl buffer, pH 7.4 and the protein concentration was measured.
To conduct the binding assay, 100 µg membrane enriched preparation was incubated with 40 nM [3H]-Glutamate in a total volume of 0.5 ml in 50 mM Tris-HCl buffer, pH 7.4 for 1 h on ice. […] Then the reaction was terminated by quickly filtering the solution on Whatman filter paper and washing by 3.5 ml Tris-HCl buffer. Radioactivity was measured in a Beckman liquid scintillation counter.

α1β2γ2E168K GABAAR = target: T2, α1β2γ2E168K GABAAR (Rattus norvegicus, UniProt P18508+P62813+P63138, E206K); assay: Patch clamp, HEK293, mutant GABAAR; assay type: cell-based
T2 construct: expressed in transfected cells; host or cells: HEK293
Description: (§1) However, for the GABAAR containing only α and β subunits, there are two α^+/β^− interfaces, with potentially two glutamate-binding pockets (Fig. 5a; Right).
(§2) HEK293 cells were cultured in DMEM (Invitrogen) supplemented with 10% fetal bovine serum. Cells were grown to 40–60% confluence and transiently transfected using Lipofectamine 2000 (Invitrogen) with 1:0.5–1 plasmid/lipid ratio. Cells were transfected with a pBK-CMV expression vector containing a rat recombinant GABAAR α, β or γ subunits. Co-transections were done with a plasmid ratio of 1:1 αβ and 2:2:1 for αβγ subunit combinations, respectively. pcDNA3.1-GFP was also co-transfected along with GABAAR subunits as a transfected marker in order to facilitate the visualization of the transfected cells during electrophysiological experiments. Cells were re-plated on glass coverslips after 15–20 h transfection and were cultured for an additional 15–24 h before whole-cell patch-clamp recordings.
(§3) The site-directed mutagenesis of α, β or γ subunits were performed by using the QuikChange method (Stratagene). […] Wild-type or mutant subunits were transfected in HEK293 cells and subjected to electrophysiology examinations.
(§4) Whole-cell patch-clamp recordings were performed under voltage-clamp mode using an Axopatch 200B or 1D patch-clamp amplifier (Molecular Devices) on HEK293 cells and cultured neurons. Whole-cell currents were recorded at a holding potential of −60 mV, and signals were filtered at 2 kHz, digitized at 10 kHz (Digidata 1322 A). Recording pipettes (3–5 MΩ) were filled with the intracellular solution that contained (mM): CsCl 140, HEPES 10, Mg-ATP 4, QX-314 5, pH 7.20; osmolarity, 290–295 mOsm. BAPTA (10 mM) was added in the intracellular solution. The coverslips were continuously superfused with the extracellular solution containing (mM): NaCl 140, KCl 5.4, HEPES 10, MgCl2 1.0, CaCl2 1.3, glucose 20, pH 7.4; osmolarity, 305–315 mOsm. […] Dose–response curves were created by fitting data to Hill equation: I = Imax/[1 + (EC50/[A])^n], where I is the current, Imax is the maximum current, [A] is a given concentration of agonist, n is the Hill coefficient. […] All experiments were performed at room temperature.

α1β2γ2R197E GABAAR = target: T3, α1β2γ2R197E GABAAR (Rattus norvegicus, UniProt P18508+P62813+P63138, R235E); assay: Patch clamp, HEK293, mutant GABAAR; assay type: cell-based
T3 construct: expressed in transfected cells; host or cells: HEK293
Description: as §1, §2, §3, §4

α1K155Dβ2γ2E168K GABAAR = target: T4, α1K155Dβ2γ2E168K GABAAR (Rattus norvegicus, UniProt P18508+P62813+P63138, E206K/K182D); assay: Patch clamp, HEK293, mutant GABAAR; assay type: cell-based
T4 construct: expressed in transfected cells; host or cells: HEK293
Description: as §2, §3
(§5) Whole-cell patch-clamp recordings were performed under voltage-clamp mode using an Axopatch 200B or 1D patch-clamp amplifier (Molecular Devices) on HEK293 cells and cultured neurons. Whole-cell currents were recorded at a holding potential of −60 mV, and signals were filtered at 2 kHz, digitized at 10 kHz (Digidata 1322 A). Recording pipettes (3–5 MΩ) were filled with the intracellular solution that contained (mM): CsCl 140, HEPES 10, Mg-ATP 4, QX-314 5, pH 7.20; osmolarity, 290–295 mOsm. BAPTA (10 mM) was added in the intracellular solution. The coverslips were continuously superfused with the extracellular solution containing (mM): NaCl 140, KCl 5.4, HEPES 10, MgCl2 1.0, CaCl2 1.3, glucose 20, pH 7.4; osmolarity, 305–315 mOsm.

[1] = target: T5, α1β2E181Gγ2 GABAAR with γ2 R197E mutation (Rattus norvegicus, UniProt P18508+P62813+P63138, E206G/R235E); assay: Patch clamp, HEK293, mutant GABAAR; assay type: cell-based
T5 construct: expressed in transfected cells; host or cells: HEK293
Description: as §2, §3, §5

α2E137Gβγ GABAAR = target: T6, α2E137Gβγ GABAAR (Rattus norvegicus, UniProt P23576+P63138, E165G); assay: Patch clamp, HEK293, mutant GABAAR; assay type: cell-based; conditions: HEK293, read-out: Glutamate potentiation of GABA currents, % of control, normalized to respective wild-type receptor
T6 construct: expressed in transfected cells; host or cells: HEK293
Description: (§6) Fig. 4 Property characterization of glutamate binding sites in HEK cells expressing wild-type or mutated αβγ GABAARs. a, b The effects of electrostatic charge and/or size of the pocket-forming residues on glutamate-induced functional modulation.
as §2, §3, §4

α2K155Dβγ GABAAR = target: T7, α2K155Dβγ GABAAR (Rattus norvegicus, UniProt P23576+P63138, K183D); assay: Patch clamp, HEK293, mutant GABAAR; assay type: cell-based; conditions: HEK293, read-out: Glutamate potentiation of GABA currents, % of control, normalized to respective wild-type receptor
T7 construct: expressed in transfected cells; host or cells: HEK293
Description: as §6, §2, §3, §4

αβ1E182Gγ GABAAR = target: T8, αβ1E182Gγ GABAAR (Rattus norvegicus, UniProt P15431+P62813, E207G); assay: Patch clamp, HEK293, mutant GABAAR; assay type: cell-based; conditions: HEK293, read-out: Glutamate potentiation of GABA currents, % of control, normalized to respective wild-type receptor
T8 construct: expressed in transfected cells; host or cells: HEK293
Description: as §6, §2, §3, §4

αβ3E182Gγ GABAAR = target: T9, αβ3E182Gγ GABAAR (Rattus norvegicus, UniProt P62813+P63079, E207G); assay: Patch clamp, HEK293, mutant GABAAR; assay type: cell-based; conditions: HEK293, read-out: Glutamate potentiation of GABA currents, % of control, normalized to respective wild-type receptor
T9 construct: expressed in transfected cells; host or cells: HEK293
Description: as §6, §2, §3, §4

N[C@@H](CCC(=O)O)C(=O)O [glutamate, Glutamate]
[3H]glutamate binding activity in presence of competitor (α1β2 GABAARs): 262.2 ± 47.8 CPM | Glu-induced potentiation, % of wild-type α1β2γ2 (α1β2γ2E168K GABAAR; Glu 100 μM): 169.4 ± 32.5% | Glu-induced potentiation, % of wild-type α1β2γ2 (α1β2γ2E168K GABAAR; Glu 1 mM): 225.7 ± 51.9% | Glu-induced potentiation, % of wild-type α1β2 (α1β2γ2R197E GABAAR; Glu 100 μM): 92.7 ± 22.0% | Glu-induced potentiation, % of wild-type α1β2γ2 (α1β2γ2R197E GABAAR; Glu 100 μM): 204.9 ± 48.7% | Glu-induced potentiation, % of wild-type α1β2 (α1β2γ2R197E GABAAR; Glu 1 mM): 82.4 ± 16.9% | Glu-induced potentiation, % of wild-type α1β2γ2 (α1β2γ2R197E GABAAR; Glu 1 mM): 190.9 ± 39.2% | restored potentiation, % of wild-type α1β2γ2 (α1K155Dβ2γ2E168K GABAAR; 100 μM glutamate): 71.8 ± 14.7% | restored potentiation, % of wild-type α1β2γ2 (α1K155Dβ2γ2E168K GABAAR; 1 mM glutamate): 76.4 ± 10% | restored potentiation, % of wild-type α1β2γ2 ([1]; Glu 100 μM): 76.6 ± 10.4% | restored potentiation, % of wild-type α1β2γ2 ([1]; Glu 1 mM): 84.5 ± 16.9% | activity at 100 µM (α2E137Gβγ GABAAR; Glu 100 μM): 0.3 ± 3.4% | activity at 1000 µM (α2E137Gβγ GABAAR; Glu 1 mM): 5.7 ± 6.2% | activity at 100 µM (α2K155Dβγ GABAAR; Glu 100 μM): 6.3 ± 6.9% | activity at 1000 µM (α2K155Dβγ GABAAR; Glu 1 mM): 5.3 ± 2.1% | activity at 100 µM (αβ1E182Gγ GABAAR; Glu 100 μM): 2.4 ± 2% | activity at 1000 µM (αβ1E182Gγ GABAAR; Glu 1 mM): 7.6 ± 1% | activity at 100 µM (αβ3E182Gγ GABAAR; Glu 100 μM): 2.3 ± 5% | activity at 1000 µM (αβ3E182Gγ GABAAR; Glu 1 mM): 2.4 ± 7.9%
